# Results taken from PubChem BioAssay (NCI).
#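 The compound was tested at five concentrations on cells cultured in 96-well plates, with a 48-hour exposure period. At the GI50, growth is halved. TGI denotes the concentration required for complete inhibition of growth.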
# Experiments:
# Test in all cases: NCI tumour cell line growth inhibition, 48 h
# [1] = test system: MDA-MB-435
# [2] = test system: NCI/ADR-RES ovarian
# [3] = test system: K-562 leukemia
# [4] = test system: A549 NSCLC
# [5] = test system: NCI-H522 lung
# [6] = test system: BT-549 breast
# [7] = test system: SK-OV-3 ovarian
# [8] = test system: SF-295 CNS
# [9] = test system: A498 renal
# [10] = test system: CAKI-1 renal
# [11] = test system: OVCAR-3 ovarian
# [12] = test system: MALME-3M melanoma
# [13] = test system: UACC-62 melanoma
# [14] = test system: SK-MEL-5 melanoma
# [15] = test system: SW-620 colon
# [16] = test system: HS 578T breast
# [17] = test system: SF-268 CNS
# [18] = test system: TK-10 renal
# [19] = test system: ACHN renal
# [20] = test system: COLO 205 colon
# [21] = test system: PC-3 prostate
# [22] = test system: SN12C renal
# [23] = test system: OVCAR-8 ovarian
# [24] = test system: HT29 colon
# [25] = test system: MCF7 breast
# [26] = test system: HOP-62 NSCLC
# [27] = test system: SF-539 CNS
# [28] = test system: SNB-19 CNS
# [29] = test system: U251 CNS
# [30] = test system: DU-145 prostate
# [31] = test system: LOX IMVI melanoma
# [32] = test system: MDA-MB-231 breast
# [33] = test system: OVCAR-5 ovarian
# [34] = test system: RXF 393 renal
# [35] = test system: UACC-257 melanoma
# [36] = test system: NCI-H23 lung
# [37] = test system: SNB-75 CNS
# [38] = test system: UO-31 renal
# [39] = test system: CCRF-CEM leukemia
# [40] = test system: SK-MEL-2 melanoma
# [41] = test system: EKVX NSCLC
# [42] = test system: MOLT-4 leukemia
# [43] = test system: SK-MEL-28 melanoma
# [44] = test system: HCT-15 colon
# [45] = test system: T-47D breast
# [46] = test system: M14 melanoma
# [47] = test system: HCC-2998 colon
# [48] = test system: HCT-116 colon
# [49] = test system: RPMI-8226 leukemia
# [50] = test system: SR leukemia
# [51] = test system: HOP-92 NSCLC
# [52] = test system: OVCAR-4 ovarian
# [53] = test system: IGROV1 ovarian
# [54] = test system: 786-0 renal
# [55] = test system: KM12 colon
# [56] = test system: NCI-H460 lung
# [57] = test system: NCI-H226 lung
smiles,measurement,setting,value
C[C@H](CCCNCCCNCCCN)[C@H]1CC[C@H]2[C@@H]3[C@H](OCCCN)C[C@H]4C[C@H](OCCCN)CC[C@]4(C)[C@H]3C[C@H](OCCCN)[C@]12C,GI50,[1],0.34 µM
same,TGI,[1],1.14 µM
same,GI50,[2],4.75 µM
same,TGI,[2],69.3 µM
same,GI50,[3],0.458 µM
same,TGI,[3],3.6 µM
same,GI50,[4],2.08 µM
same,TGI,[4],18.3 µM
same,GI50,[5],11.1 µM
same,TGI,[5],58.6 µM
same,GI50,[6],0.923 µM
same,TGI,[6],5.1 µM
same,GI50,[7],35.7 µM
same,TGI,[7],> 100 µM
same,GI50,[8],1.33 µM
same,TGI,[8],23.9 µM
same,GI50,[9],> 100 µM
same,TGI,[9],> 100 µM
same,GI50,[10],16 µM
same,TGI,[10],> 100 µM
same,GI50,[11],14.6 µM
same,TGI,[11],> 62.5 µM
same,GI50,[12],4.27 µM
same,TGI,[12],26 µM
same,GI50,[13],0.871 µM
same,TGI,[13],13.3 µM
same,GI50,[14],0.626 µM
same,TGI,[14],3.29 µM
same,GI50,[15],0.98 µM
same,TGI,[15],8.2 µM
same,GI50,[16],0.918 µM
same,TGI,[16],12.5 µM
same,GI50,[17],1.54 µM
same,TGI,[17],16.1 µM
same,GI50,[18],2.18 µM
same,TGI,[18],51.6 µM
same,GI50,[19],1.41 µM
same,TGI,[19],27.7 µM
same,GI50,[20],1.1 µM
same,TGI,[20],15.3 µM
same,GI50,[21],18.3 µM
same,TGI,[21],> 100 µM
same,GI50,[22],1.61 µM
same,TGI,[22],24.2 µM
same,GI50,[23],2.27 µM
same,TGI,[23],> 55.8 µM
same,GI50,[24],0.821 µM
same,TGI,[24],13.8 µM
same,GI50,[25],6.46 µM
same,TGI,[25],> 26.4 µM
same,GI50,[26],1.44 µM
same,TGI,[26],> 31.5 µM
same,GI50,[27],0.98 µM
same,TGI,[27],3.46 µM
same,GI50,[28],1.92 µM
same,TGI,[28],> 83.4 µM
same,GI50,[29],2.65 µM
same,TGI,[29],19.7 µM
same,GI50,[30],3.34 µM
same,TGI,[30],21.3 µM
same,GI50,[31],0.888 µM
same,TGI,[31],9.41 µM
same,GI50,[32],0.652 µM
same,TGI,[32],18.8 µM
same,GI50,[33],17.5 µM
same,TGI,[33],> 100 µM
same,GI50,[34],6.29 µM
same,TGI,[34],46.9 µM
same,GI50,[35],9.63 µM
same,TGI,[35],59.5 µM
same,GI50,[36],1.48 µM
same,TGI,[36],10.8 µM
same,GI50,[37],8.49 µM
same,TGI,[37],> 83.9 µM
same,GI50,[38],0.913 µM
same,TGI,[38],> 58.2 µM
same,GI50,[39],3.82 µM
same,TGI,[39],31.1 µM
same,GI50,[40],47.5 µM
same,TGI,[40],> 100 µM
same,GI50,[41],5.43 µM
same,TGI,[41],> 43.9 µM
same,GI50,[42],1.09 µM
same,TGI,[42],8.12 µM
same,GI50,[43],0.573 µM
same,TGI,[43],4.13 µM
same,GI50,[44],3.14 µM
same,TGI,[44],> 100 µM
same,GI50,[45],2.59 µM
same,TGI,[45],> 37 µM
same,GI50,[46],0.874 µM
same,TGI,[46],3.88 µM
same,GI50,[47],0.653 µM
same,TGI,[47],5.02 µM
same,GI50,[48],0.482 µM
same,TGI,[48],10.2 µM
same,GI50,[49],0.418 µM
same,TGI,[49],1.54 µM
same,GI50,[50],0.326 µM
same,TGI,[50],1.66 µM
same,GI50,[51],0.584 µM
same,TGI,[51],11.9 µM
same,GI50,[52],> 45.2 µM
same,TGI,[52],> 100 µM
same,GI50,[53],0.421 µM
same,TGI,[53],8.86 µM
same,GI50,[54],0.824 µM
same,TGI,[54],5.49 µM
same,GI50,[55],0.355 µM
same,TGI,[55],6.05 µM
same,GI50,[56],4.72 µM
same,TGI,[56],> 34.7 µM
same,TGI,[57],> 76.7 µM
